Assay results as given in PMC12867150, “A fungi-derived cyclic peptide enhances Th9-mediated antitumor immunity by targeting ZAP70 and SREBP1” (The Journal of Clinical Investigation, 2025).
“And” between values parts separate entries of the source, which are not always exact repeats. Equal entries are not always repeated.

What was measured:
[1] = test system: transferred CD45.1+ Th9 cells; assay: Cytokines and granzyme B/perforin in transferred CD45.1+ Th9 cells (Figure 3G, S4A-C); assay type: in vivo, mouse; design: IFN-γ expression / TNF-α expression / Expression of IFN-γ of transferred CD45.1⁺ OT-II Th9 cells in tumors / Expression of TNF-α of transferred CD45.1⁺ OT-II Th9 cells in tumors: unit not given here; details: for Expression of GzmB+Perforin+ of transferred CD45.1⁺ OT-II Th9 cells in tumor: Supplemental Figure 4C; for Expression of IFN-γ of transferred CD45.1⁺ OT-II Th9 cells in tumors: Supplemental Figure 4A; for Expression of TNF-α of transferred CD45.1⁺ OT-II Th9 cells in tumors: Supplemental Figure 4B
Method: C57BL/6 mice were subcutaneously injected with 5 × 10^5 B16-OVA melanoma cells. Five days after tumor implantation, mice received an intravenous infusion of 2 × 10^6 in vitro–differentiated Th9 cells (cultured for 5 days), which were derived from OT-II CD45.1 donor mice, accompanied by 4 × 10^5 OVA peptide–pulsed DCs via the tail vein. To enhance T cell engraftment and facilitate lymphodepletion, a single intraperitoneal injection of cyclophosphamide (200 mg/kg, Sigma, catalog C0768) was administered 1 day prior to T cell transfer. Mice were euthanized at designated time points for the collection and analysis of spleens, tumor-draining lymph nodes, and tumor tissues.
Details regarding staining panels (human and mouse), reagents (including clones and catalog numbers), acquisition settings, compensation/controls, and analysis procedures are provided in Supplemental Methods.
BioLegend, Cat. No. 422301 or Mouse TruStain FcX™, BioLegend, Cat. No. 101319) for 10 minutes at 4°C. For surface marker detection, cells were stained with fluorochrome-conjugated monoclonal antibodies in 96-well V-bottom plates and incubated on ice for 30 minutes. After staining, cells were washed twice and resuspended in FACS buffer for analysis.
Prior to intracellular cytokine staining, cells were restimulated for 4 hours with PMA (Absin, Cat. No. abs9107), ionomycin (Sigma-Aldrich, Cat. No. I0634), and brefeldin A (MedChemExpress, Cat. No. HY-16592). For intracellular cytokine staining, cells were first surface-stained as described above, then fixed and permeabilized using the BD Cytofix/Cytoperm™ kit (BD Biosciences, Cat. No. 554714) according to the manufacturer ’s protocol. Intracellular proteins were stained with directly conjugated antibodies targeting IL-9, IL-17a, IL-4, IFN-γ, TNF-α, FOXP3, p-ZAP70, Perforin, and […]
Antibodies used for mouse samples included those against IL-9 (PE, clone RM9A4, Biolegend, Cat. No. 514104), IFN-γ (PE, clone XMG1.2, Biolegend, Cat. No.
Cat. No. 103138), CD4 (APC/Cy7, clone E-AB-F1353UJ, Elabscience, Cat. No.
AF18028), CD8α (PerCP/Cy5.5, clone E-AB-F1104UJ, Elabscience, Cat. No. […]
clone E-AB-F1187UH, Elabscience, Cat. No. AF19854), TNF-α (BV421, clone MP6-XT22, Biolegend, Cat. No. 506328), FOXP3 (PE, clone FJK-16s, eBioscience, Cat. No.
Perforin (APC, clone S16009A, Biolegend, Cat. No. 154303) and Granzyme B (APC, clone QA16A02, Biolegend, Cat. No. 372203). For human samples, antibodies against CD4 (PerCP/Cy5.5, clone RPA-T4, Biolegend, Cat. No. 300530; APC/Cy7, clone OKT4, Biolegend, Cat. No. 317418), CD19 (APC/Cy7, clone SJ25C1, Biolegend, Cat.
No. 363009), IFN-γ (PE, clone 4S.B3, Biolegend, Cat. No. 502509), IL-9 (PE, clone

[2] = test system: B16-OVA melanoma; assay: Adoptive transfer of OT-II Th9 cells with anti-PD-1, B16-OVA tumor growth (Figure 2I); assay type: in vivo, C57BL/6 mice; details: EpA-Th9 cells with anti-PD-1; result in words
From the text: (A) Schematic of the therapeutic model. C57BL/6 mice were subcutaneously inoculated with B16-OVA melanoma cells (5 × 10^5) and preconditioned with cyclophosphamide (CTX) on day 4. […] (B–G) Flow-cytometric analysis of transferred CD45.1^+ OT-II Th9 cells (B and C) and endogenous CD4^+ (D and E) and CD8^+ T cells (F and G) in spleens and tumors, showing frequencies and absolute numbers (n = 4 mice per group). (H) Tumor growth curves in B16-OVA–bearing C57BL/6 or β2-microglobulin–deficient (β2m-KO) mice following transfer of control or EpA-treated OT-II Th9 cells (n = 4 mice per group). (I) C57BL/6 mice bearing B16-OVA tumors were treated with control or EpA-induced OT-II Th9 cells (2 × 10^6, i.v., day 5), followed by anti–PD-1 antibody (200 μg, i.p.) on day 7, and (100 μg, i.p.) on day 10 and 12. Tumor growth is shown with individual trajectories (n = 6 mice per group). Statistical analysis was performed using 2-tailed unpaired Student’s t test ([…], B–G) or 1-way ANOVA with Tukey’s post hoc test (H and I). All data are presented as the mean ± SEM. *P < 0.05, **P < 0.01, ***P < 0.001. Schematic in A created using BioRender (https://Biorender.com).
Finally, we examined whether the CD8^+ T cell–supporting capacity of EpA-Th9 cells could synergize with immune checkpoint blockade (ICB) therapy. […]

[3] = transferred CD45.1+ Th9, spleen, individual mice, n = 4
[4] = transferred cells, tumor, result in words

For anteiso-C15 Leu7 surfactin [EpA], the “GzmB+ PRF1+ gate number” value ([1]; CD45.1+ T cells in tumors, representative flow plot, Figure S4C) was 34.1, the “GzmB and Perforin expression” value [1, 3] was 68.8 and 68 and 57.8 and 55.7 and the IFN-γ expression [1, 3] was 3.05 and 4.37 and 6.82 and 2.23. The TNF-α expression [1, 3] was 23.2 and 21 and 17.5 and 23.6, the “IFN-γ, TNF-α, granzyme B and perforin” value ([1]; transferred cells, spleen, result in words) was “markedly increased expression” and the IFN-γ expression [1, 4] was “elevated”. The TNF-α levels [1, 4] was “remained unchanged”, the “granzyme B+ perforin+ frequency” value [1, 4] was “significantly higher” and the “Expression of GzmB+Perforin+ of transferred CD45.1⁺ OT-II Th9 cells in tumor” value (from here on “Expression of GzmB+Perforin+ … in tumor”) ([1]; tumor, replicate 1) was 20.5. For the same substance, the “Expression of GzmB+Perforin+ … in tumor” value ([1]; tumor, replicate 2) was 18.9, the “Expression of GzmB+Perforin+ … in tumor” value ([1]; tumor, replicate 3) was 25.9 and the “Expression of GzmB+Perforin+ … in tumor” value ([1]; tumor, replicate 4) was 34.1. For the same substance, the “Expression of IFN-γ of transferred CD45.1⁺ OT-II Th9 cells in tumors” value (“Expression of IFN-γ … in tumors” below) ([1]; replicate 1) was 386, the “Expression of IFN-γ … in tumors” value ([1]; replicate 2) was 392 and the “Expression of IFN-γ … in tumors” value ([1]; replicate 3) was 420. For the same substance, the “Expression of IFN-γ … in tumors” value ([1]; replicate 4) was 261, the “Expression of TNF-α of transferred CD45.1⁺ OT-II Th9 cells in tumors” value (shortened to “Expression of TNF-α … in tumors”) ([1]; replicate 1) was 916 and the “Expression of TNF-α … in tumors” value ([1]; replicate 2) was 557. The “Expression of TNF-α … in tumors” value ([1]; replicate 3) was 913, the “Expression of TNF-α … in tumors” value ([1]; replicate 4) was 544 and the “response to PD-1 blockade” value [2] was “significantly enhanced the therapeutic response to PD-1 blockade”.
